Test results published in patent publication US20240116892A1, “HETEROCYCLIC AMIDE AND UREA COMPOUNDS AS JAK2 INHIBITORS” (Ajax Therapeutics, Inc., priority 2022, published 2024).

The compounds below were run against JAK2 (JH1 domain-catalytic, Y1007F, Y1008F) kinase (Homo sapiens (Human), UniProt O60674, Y1007F/Y1008F) (assay: JAK2 JH1 Domain Binding Assay). Conditions: qPCR readout.
JAK2 (JH1 domain-catalytic, Y1007F, Y1008F) kinase, sequence (O60674 849-1124 Y1007F/Y1008F): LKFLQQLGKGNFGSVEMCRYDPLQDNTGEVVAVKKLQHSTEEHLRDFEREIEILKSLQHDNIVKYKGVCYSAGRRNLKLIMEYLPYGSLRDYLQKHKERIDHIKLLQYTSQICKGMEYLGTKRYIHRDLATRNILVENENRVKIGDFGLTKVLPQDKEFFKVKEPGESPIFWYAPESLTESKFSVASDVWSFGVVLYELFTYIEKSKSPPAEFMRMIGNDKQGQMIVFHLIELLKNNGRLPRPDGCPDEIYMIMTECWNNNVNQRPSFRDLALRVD
How it was run: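 Competitive binding format: test compound, DNA-tagged JAK2 JH1 (Y1007F/Y1008F; HEK293-expressed NFkB fusion) and ligand-coated magnetic beads incubated 1 h at room temperature. Kinase retained on beads released with 0.5 μmol/L non-biotinylated ligand, then measured by qPCR.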
With `CN(C(=O)Nc1cc(C(F)(F)F)cn(C)c1=O)C12CCC(c3cnc4[nH]ncc4c3)(CC1)OC2` [Example I-168, 1-(1-(1H-pyrazolo[3,4-b]pyridin-5-yl)-2-oxabicyclo[2.2.2]octan-4-yl)-1-methyl-3-(1-methyl-2-oxo-5-(trifluoromethyl)-1,2-dihydropyridin-3-yl)urea] the Kd was under 0.01 µM. With `COc1c[nH]c2ncc([C@H]3CC[C@H](N(C)C(=O)Nc4cc(C(F)(F)F)cn(C)c4=O)CC3)nc12` [Example I-170, trans-1-(4-(7-methoxy-5H-pyrrolo[2,3-b]pyrazin-2-yl)cyclohexyl)-1-methyl-3-(1-methyl-2-oxo-5-(trifluoromethyl)-1,2-dihydropyridin-3-yl)urea] the Kd was under 0.01 µM. Compound `COc1c[nH]c2ncc([C@H]3CC[C@@H](N(C)C(=O)Nc4cc(C(F)(F)F)cn(C)c4=O)CC3)nc12` [Example I-171, cis-1-(4-(7-methoxy-5H-pyrrolo[2,3-b]pyrazin-2-yl)cyclohexyl)-1-methyl-3-(1-methyl-2-oxo-5-(trifluoromethyl)-1,2-dihydropyridin-3-yl)urea] has a Kd of 0.05 to 1 µM. Work on `CN(C(=O)Nc1cc(C(C)(C)C)n([C@@H]2CCOC2)n1)C1CCN(c2cnc3[nH]ncc3c2)CC1` [Example I-173, (R)-1-(1-(1H-pyrazolo[3,4-b]pyridin-5-yl)piperidin-4-yl)-3-(5-(tert-butyl)-1-(tetrahydrofuran-3-yl)-1H-pyrazol-3-yl)-1-methylurea] yielded a Kd of under 0.01 µM. `CN(C(=O)Nc1cc(C(C)(C)C)n([C@H]2CCOC2)n1)C1CCN(c2cnc3[nH]ncc3c2)CC1` [Example I-174, (S)-1-(1-(1H-pyrazolo[3,4-b]pyridin-5-yl)piperidin-4-yl)-3-(5-(tert-butyl)-1-(tetrahydrofuran-3-yl)-1H-pyrazol-3-yl)-1-methylurea] was tested, and the Kd was under 0.01 µM. With `CN(C(=O)Nc1cc(C(F)(F)F)ccn1)[C@@H]1CCN(c2cnc3[nH]ncc3c2)C[C@H]1F` [Example I-175, 1-((3R,4R)-3-fluoro-1-(1H-pyrazolo[3,4-b]pyridin-5-yl)piperidin-4-yl)-1-methyl-3-(4-(trifluoromethyl)pyridin-2-yl)urea] the Kd was under 0.01 µM. Work on `CN(C(=O)Nc1cc(C(F)(F)F)ccn1)[C@H]1CCN(c2cnc3[nH]ncc3c2)C[C@@H]1F` [Example I-176, 1-((3S,4S)-3-fluoro-1-(1H-pyrazolo[3,4-b]pyridin-5-yl)piperidin-4-yl)-1-methyl-3-(4-(trifluoromethyl)pyridin-2-yl)urea] yielded a Kd of under 0.01 µM. `Cc1cc(C(F)(F)F)cc(NC(=O)N(C)[C@@H]2CCN(c3cnc4[nH]ncc4c3)C[C@H]2F)n1` [Example I-177, 1-((3R,4R)-3-fluoro-1-(1H-pyrazolo[3,4-b]pyridin-5-yl)piperidin-4-yl)-1-methyl-3-(6-methyl-4-(trifluoromethyl)pyridin-2-yl)urea] showed a Kd of under 0.01 µM. `Cc1cc(C(F)(F)F)cc(NC(=O)N(C)[C@H]2CCN(c3cnc4[nH]ncc4c3)C[C@@H]2F)n1` [Example I-178, 1-((35,4S)-3-fluoro-1-(1H-pyrazolo[3,4-b]pyridin-5-yl)piperidin-4-yl)-1-methyl-3-(6-methyl-4-(trifluoromethyl)pyridin-2-yl)urea] was tested, and the Kd was under 0.01 µM. With `CN(C(=O)Nc1cc(C(F)(F)F)cn(C)c1=O)C12CC(c3ccc(NC(=O)C4CC4)nc3)(C1)C2` [Example I-179, N-(5-(3-(1-methyl-3-(1-methyl-2-oxo-5-(trifluoromethyl)-1,2-dihydropyridin-3-yl)ureido)bicyclo[1.1.1]pentan-1-yl)pyridin-2-yl)cyclopropanecarboxamnide] the Kd was 0.01 to 0.05 µM. For `CN(C(=O)Nc1cc(C(F)(F)F)n([C@@H]2CCOC2)n1)C1CCN(c2cnc3[nH]ncc3c2)CC1` [Example I-180, (R)-1-(1-(1H-pyrazolo[3,4-b]pyridin-5-yl)piperidin-4-yl)-1-methyl-3-(1-(tetrahydrofuran-3-yl)-5-(trifluoromethyl)-1H-pyrazol-3-yl)urea], the Kd was under 0.01 µM.
